7 molecules from patent US20090105149A1, “Compounds comprising lpa” (ENKAM PHARMACEUTICALS A/S, priority 2003, published 2009) can be followed below.

The test system of experiment [1] is FGL-induced neurite outgrowth in CGN cultures. The experiment in a line: Effect of inhibitors of FGFR, MEK and PI3K on FGL-induced neurite outgrowth in CGN. The settings on record: Rattus norvegicus, 27 μg/ml FGLd, FGLd-treated control = 100%, read-out: FGLd-induced neurite outgrowth in CGN in presence of inhibitor. It counts as cell-based, rat. How it is done: CGN cultures were grown for 24 hours at a density of 10,000 cells/cm^2 on 8-well permanox slides in the presence of the FGL peptide and an inhibitor. PD98059 ([…]) was added at concentrations of 12.5, 25 and 50 μM simultaneously with 10 μg/ml FGLd; LY294002 (▴) was added at concentrations of 3.5, 7 and 10 μM simultaneously with 27 μg/ml FGLd. SU5402 (▪) was added in concentrations of 20, 40 and 80 μM simultaneously with 27 μg/ml FGLd. After the treatment cells were fixed and immunostained for GAP-43. Results from at least four independent experiments are shown as percentage ±SEM, with FGLd-treated control cultures set at 100%. The dashed line indicates the average neurite length in cultures without FGLd-treatment. *p<0.05, **p<0.01 when compared to the FGLd-treated controls.
(§1) Peptide solutions without or with inhibitors of various signal transduction pathways were added to a total volume of 300 μl/cm^2, and the slides were incubated at 37° C. After 24 hours, the neurons were fixed with 4% (v/v) formaldehyde for 20 minutes and thereafter immunostained using primary rabbit antibodies against GAP-43 and Alexa Fluor secondary goat anti-rabbit antibodies. Images of at least 200 neurons for each group in each individual experiment were obtained systematically by using computer assisted fluorescence microscopy as previously described (Rønn et al., 2000 op. cit.). Briefly, a Nikon Diaphot inverted microscope with a Nikon Plan 20× objective (Nikon, Tokyo, Japan) coupled to a video camera (Grundig Electronics, Germany) was used for recordings. The same software package as described above for the dopaminergic neurite outgrowth assay was used to process the recorded images.

The test system of experiment [2] is organotypic hippocampal neuronal slice cultures (OHSC). The experiment in a line: OGD, propidium iodide staining of OHSC. It counts as cell-based, rat. The settings on record: control peptide. The text has this: In the present study it was investigated the effect of the FGL peptide on synaptic plasticity, neuronal function and vulnerability following oxygen and glucose deprivation (OGD) in organotypic hippocampal neuronal slice cultures (OHSC) from 7-day-old Wistar rats according to method of Stoppini et al. (1991) Neurosci Methods. 37:173-82 and primary cultures of dissociated hippocampal neurons from 1-day-old rats according to method of Maar et al. (1997) J Neurosci Res. 47:163-72. Primary cell cultures were maintained for 11-12 days and OHSC for 12-14 days prior to adding FGLd.
The primary cell cultures and OHSC were exposed to OGD for 10 and 20 minutes. Following OGD, the cultures were again supplied with oxygen and glucose and analysed at 1, 4 or 24 hour time point after introduction of OGD exposure. FGLd (or the control peptide FGLc) was added 24 hr before, immediately, or 1 hr or 24 hr after OGD. When administered prior to OGD, FGLd was removed from the medium when introducing OGD. In some cases, the slice cultures were treated with FGLd only at 4 hr after OGD. In addition, the FGFR inhibitor, SU5402 (25 μM), was added together with FGLd in some of the set-ups.
In hippocampal neuronal cultures, FM 1-43 staining was used to evaluate pre-synaptic function (described above). Cell viability in both primary cell cultures and OHSC was measured using the […] [3-(4,5-dimethylthiazol-2-yl)-2,5-diphenyltetrazolium bromide] assay according to Malich et al, (1997) Toxicology. 124:179-92. In, addition, cell viability in OHSC was measured using propidium iodide (PI) staining according to Laake et al. (1999) Brain Res Brain Res Protoc. 4:173-84.

For experiment [3], the system named is hippocampal neurons. The experiment in a line: Neurite outgrowth, hippocampal neurons. It counts as cell-based, rat. The settings on record: at 0.3 μg/ml. The protocol:
(§2) The cultures were subsequently immunostained for tyrosine hydroxylase. Hippocampal neurons and CGN were plated at a density of 10,000 cells/cm^2 on 8-well permanox chamber slides and incubated for 24 hours in the presence of various concentrations of FGLd. Subsequently the neurons were immunostained for GAP-43. Results from at least five independent experiments for each neuronal culture are shown as percentage ±SEM with the untreated controls set at 100%. *p<0.05, **p<0.01, ***p<0.001 when compared to the controls.
Results from at least four independent experiments are shown as percentage SEM with untreated controls set at 100%. **p<0.01 when compared to the controls.
as §1

The test system of experiment [4] is cerebellar granule neurons (CGN). The experiment in a line: Survival of CGN induced to undergo apoptosis by low KCl. The settings on record: for Neuronal Survival (% of Control): Low K+ (5 mM).
Method: Cerebella granular meurons (CGN) (e and f) from postnatal day 7 rats were grown at a density of 100,000 cells/cm^2 for 7 days on poly-L-lysine coated microtiter plates in the medium containing 40 mM KCl, then the medium was substituted to a 5 mM KCl containing medium supplemented with various concentrations of FGLd.
For the experiments cerebellar tissue was dissected in modified Krebs-Ringer solution kept on ice, and treated as described for the hippocampal neurons above. All cell cultures were incubated at 37° C. in a humidified atmosphere containing 5% CO2.
Primary cultures of CGN were plated at a density of 100,000 cells/cm^2 on poly-L-lysine coated 8-well permanox slides in Neurobasal-A medium (Gibco, BRL) supplemented with 2% (v/v) B27, 0.5% (v/v) glutamax, 100 U/ml penicillin, 100 μg/ml streptomycin and KCl, making the final concentration of KCl in the medium 40 mM. 24 hours after plating, cytosine-β-D-arabinofuranoside (Ara-C; Sigma-Aldrich) was added to a final concentration of 10 μM to avoid proliferation of glial cells, after which the neurons were allowed to differentiate for further six days at 37° C. Apoptotic cell death was induced by washing twice and changing the medium to Basal Medium Eagle (BME; Gibco BRL) supplemented with 1% (v/v) glutamine, 100 U/ml penicillin and 100 μg/ml streptomycin, 3.5 g D-glucose/l and 1% (v/v) sodium pyruvate (Gibco BRL) together with various concentrations of peptide. Thereby the concentration of potassium in the cultures was reduced to 5 mM KCl. Two days after induction of apoptosis, the cells were fixed with 4% formaldehyde and stained with Hoechst 33258 as described for the survival assay employing hippocampal neurons.
Experiment [5] relates to dopaminergic neurons. The experiment in a line: Neurite outgrowth, dopaminergic neurons. In kind it is cell-based, rat. Conditions: DN E14, 72 h. The protocol: as §2
After 72 hours of incubation, the neurons were fixed with 4% (v/v) formaldehyde and immunostained using a primary mouse monoclonal antibody against tyrosine hydroxylase and secondary biotinylated sheep anti-mouse antibodies followed by incubation with peroxidase conjugated streptavidin. 98 images for each experimental condition in each individual experiment were automatically recorded using a computerised microscope workstation described by Walmod et al. (2002) Toxicol Appl Pharmacol. 181:1-15. Briefly, the workstation consisted of an Eclipse TE 300 inverted microscope (Nikon, Tokyo, Japan) equipped with a motorised, movable microscope stage (LUDL Electronic Production Ltd, Hawthorne, N.Y., USA), a 10× objective and a 1100 analogue b/w CCD video camera (DFA, Denmark). A software package Prima developed at the Protein Laboratory (Copenhagen University, Denmark) was used to make a stereologically based determination of neurite length according to Rønn et al., (2000) J Neurosci Methods. 100:25-32).

Experiment [6] concerns dopaminergic neurons. The experiment in a line: Survival of dopaminergic neurons exposed to 6-OHDA. The settings on record: 10 ng/ml; 6-OHDA-treated control cells set to 100%. It counts as cell-based, rat. The protocol:
Dopaminergic neurons (DN) (a and b) from day 15 rat embryos grown at a density of 150,000 cells/cm^2 for six days without or with various concentrations of peptide on 24-well cell culture plates coated with poly-D-lysine were exposed to 100 μM 6-OHDA for two hours. Medium was changed and various concentrations of FGLd were added. The neurons were grown for another 24 hours before the cultures they were fixed and immunostained for tyrosine hydroxylase.
Dopaminergic neurons were prepared from Wistar rat embryos at embryonic day 15 (Charles River, Sulzfeld, Germany or Møllegaard, Denmark). A pregnant rat was sacrificed and the uterus was taken out and kept on ice in Hank's balanced salt solution (HBSS; Gibco, BRL). The ventral part of the mesencephalon was dissected from the embryonic brains, homogenised on ice in Gey's balanced salt solution (GBSS; Gibco, BRL) supplemented with 5 g glucose/l (Sigma-Aldrich) and thereafter trypsinised. The dissociated cells were washed in the presence of DNAse 1 and soybean trypsin inhibitor (Sigma-Aldrich).
For the survival assay isolated neurons were seeded at a density of 150,000 cells/cm^2 in 24-well cell culture plates coated with poly-D-lysine as described above. The neurons were left to differentiate for six days without or with various concentrations of the FGL peptide, after which 6-OHDA was added at a concentration of 100 μM for two hours. A stock solution was prepared by dissolving 6-OHDA to a concentration of 10 mM in 0.1% (w/v) sodium metabisulfite in order to prevent oxidation. After two hours with 6-OHDA, the medium was changed to Neurobasal medium with supplements and peptide, and the cell cultures were further incubated for 24 hours, fixed and immunostained for tyrosine hydroxylase. 98 images for each experimental condition in each individual experiment were automatically recorded as described for the dopaminergic neurite outgrowth assay below.

In experiment [7] the test system is hippocampal neurons. The experiment in a line: Survival of hippocampal neurons exposed to Aβ25-35. It counts as cell-based, rat. Conditions: 50 ng/ml; 20 μM Aβ25-35. How it is done: For the experiments dissociated hippocampal neurons were isolated from Wistar rat embryos at embryonic day 19 or newborn rats as described by Rønn et al. (1999) Nat. Biotechnol. 17:1000-5.
Briefly, hippocampus was isolated from the brain in ice cold modified Krebs Ringer solution, cleared of blood vessels, roughly homogenised by chopping and then trypsinised. The dissociated cells were washed in the presence of DNAse 1 and soybean trypsin inhibitor.
For the assay neurons were plated at a density of 40,000 cells/cm^2 on 8-well permanox slides coated with 10 μg/ml poly-L-lysine in Neurobasal medium. 15 minutes after plating, Aβ25-35 was added to a final concentration of 20 μM. The Aβ25-35 had prior to plating been dissolved in sterile deionized water to a concentration of 3 mM and incubated at 37° C. for four days according to Pigino et al. (2001) J. Neurosci. 21:834-42. This treatment induces fibrillation of the Aβ-peptide fragment, thereby increasing its neurotoxic activity. The neurons were incubated with Neurobasal medium containing the FGL peptide for 70 hours, fixed with 4% (v/v) formaldehyde, and stained with Hoechst 33258 for 25 minutes as described by Kruman et al. (1997). Images of 1000-1500 neurons were randomly recorded for each group in each experiment using computer assisted fluorescence microscopy as described for the hippocampal neurite outgrowth assay. Nuclei from dead and live neurons were counted using the software package Prima developed at the Protein Laborator, Copenhagen University, and the fraction of live neurons relative to the total number of neurons was estimated.

Marks after values point to notes of the source that are not given here.

Consider `O=c1cc(N2CCOCC2)oc2c(-c3ccccc3)cccc12` [LY294002], for which the FGLd-induced neurite outgrowth (% of FGLd-treated control) at 3.5 µM in experiment [1] (3.5 μM inhibitor) was 90%. Further, the FGLd-induced neurite outgrowth (% of FGLd-treated control) at 10 µM in experiment [1] (10 μM inhibitor) was about 50%.
For EVYVVAENMGKSKA [FGLc], the “PI staining (cell damage) after 10 minutes of OGD” value in experiment [2] is given as “did not affect cell damage induced by OGD”.
For “11-amino acids fragment of the sequence set forth in SEQ ID NO: 5: SEQ ID NO: 5 (VAENSRGKNVAKG) with two amino acids truncated from the C-terminus; from axonal-associated cell adhesion molecule (Axonal-associated cell adhesion molecule [NCBI: NP_446331]: FGFR binding motif)”, the “maximal effect, increase in neurite length of rat hippocampal neurons” value in the experiment on hippocampal neurons [3] stood at 500%.
With IGF-1: insulin-like growth factor 1, the “rescue of CGN from low KCl-induced cell death” value in experiment [4] (50 ng/ml, 5 mM KCl) is “could be rescued”.
Turning to “EVYVVAENQQGKSKA (NCAM Fn III, 2 [Swiss-Prot: P13591]: FGFR binding motif) [FGLm]”, the “Effect on Neurite Length (Percent Increase vs. Control)” value in the experiment with dopaminergic neurons [5] (10 μg/mL) is given as 15%; in the experiment on dopaminergic neurons [5] (50 μg/mL) it was 23%; in the experiment on dopaminergic neurons [5] (250 μg/mL) it was 28%. For the same molecule, the “Neuronal Survival (% of Control)” value in experiment [4] (CGN (PND 3-4), 250 μg/mL) is reported as 125%* % of Control; in experiment [4] (CGN (PND 7-8), 10 μg/mL), 110%* % of Control; in experiment [4] (CGN (PND 7-8), 50 μg/mL), 119%* % of Control; in experiment [4] (CGN (PND 7-8), 250 μg/mL), 142%* % of Control.

B1: GDNF: glia derived neurotrophic factor (protein, UniProt P39905 78-211, looked up)
Glial cell line-derived …: SPDKQMAVLPRRERNRQAAAANPENSRGKGRRGQRGKNRGCVLTAIHLNVTDLGLGYETKEELIFRYCSGSCDAAETTYDKILKNLSRNRRLVSDKVGQACCRPIAFDDDLSFLDDNLVYHILRKHSAKRCGCI
For B1, in the experiment with dopaminergic neurons [6], the “survival of dopaminergic neurons treated with 6-OHDA” value is 150%.

B2: BDNF: brain derived neurotrophic factor (protein, UniProt P23560 19-247, looked up)
Neurotrophic factor BDNF …: APMKEANIRGQGGLAYPGVRTHGTLESVNGPKAGSRGLTSLADTFEHVIEELLDEDQKVRPNEENNKDADLYTSRVMLSSQVPLEPPLLFLLEEYKNYLDAANMSMRVRRHSDPARRGELSVCDSISEWVTAADKKTAVDMSGGTVTVLEKVPVSKGQLKQYFYETKCNPMGYTKEGCRGIDKRHWNSQCRTTQSYVRALTMDSKKRIGWRFIRIDTSCVCTLTIKRGR
Turning to B2, the “rescue of hippocampal neurons from Aβ25-35-induced cell loss” value with hippocampal neurons [7] is reported as “could in part be rescued”.
